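1) Cells in 96-well plates. 2) Compound, 48 h, 5 concentrations. 3) Linear interpolation between surrounding doses. 4) Unreached endpoint = highest concentration. TGI: concentration producing complete growth inhibition.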 Where a SMILES comes first, the peptide text is derived from it. The star is where a group is joined. OBn = c1ccc(CO*)cc1
Tests used:
Experiment in all cases: NCI anticancer screen, dose series, 48 h
UO-31 renal = test system: UO-31 renal
K-562 leukemia = test system: K-562 leukemia
COLO 205 colon = test system: COLO 205 colon
M14 melanoma = test system: M14 melanoma

| Compound | TGI (UO-31 renal) [µM] | TGI (K-562 leukemia) [µM] | TGI (COLO 205 colon) [µM] | TGI (M14 melanoma) [µM] |
| --- | --- | --- | --- | --- |
| O=c1c2c3c(sc2nc2n1N=CN(c1ccc(Cl)cc1)C2)CCCC3 | > 100 | > 100 | > 100 | > 100 |
| NC(CCC(=O)OCc1ccccc1)C(=O)NC(CCC(=O)OCc1ccccc1)C(=O)O (stereo not given) (H-Glu(OBn)-Glu(OBn)-OH; configuration not given here) | > 100 | > 100 | > 100 | > 100 |
| C[C@@H]1OC2(O)[C@@H]3CCCN3C(=O)N(Cc3ccccc3)N2C1=O (stereo not given in full) |  |  | > 100 | > 100 |
| C/C(=N/NC(=S)N1CCCC1)c1cccc(/C(C)=N\NC(=S)N2CCCC2)n1 | 2.11 | > 100 | > 100 | 2.56 |
| CN1CCN(C(=S)N(C)C(=O)c2cccs2)CC1 | > 100 | > 100 | > 100 | > 100 |
| COc1ccc(C(=O)N2CCN(c3ccc4[nH]c(=O)oc4c3)CC2)cc1 | > 100 |  | > 100 | > 100 |
| CO[C@H](c1ccccc1)[C@H](O)[C@](O)(c1ccccc1)P(=O)(OC)OC | > 100 | > 100 | > 100 | > 100 |
| C(/C=N/NC1=NCCCN1)=N\NC1=NCCCN1 | > 100 | > 100 | > 100 | > 100 |
| COC(=O)C(Cc1c[nH]c2ccccc12)NP(=O)(O)OCC1OC(n2cc(F)c(=O)[nH]c2=O)CC1O (stereo not given) | > 100 | > 100 | > 100 | > 100 |
| COC(=O)/C=C(\S/C(=C(/c1ccc(OC)cc1)n1cc(C(=O)OC)c(C(=O)OC)n1)c1ccc(OC)cc1)C(=O)OC | 16 | > 100 | 8.64 | > 100 |
| O=C(NN1C(=O)c2ccccc2C1=O)c1ccccc1Nc1ccccc1C(=O)NN1C(=O)c2ccccc2C1=O | > 100 | > 100 | > 100 | > 100 |
| CC(C)N(c1cc2c(cc1F)c(=O)c(C(=O)O)cn2-c1ccc(N2CCN(C)CC2)cn1)C(C)C | > 100 | > 100 | > 100 | > 100 |
| COC(=O)c1c(C(=O)OC)c(C(c2ccccc2)c2ccccc2)n(-c2ccccc2)c1Cl | > 10 | > 10 | > 10 | > 10 |
| O=C(CCCN1CC=C(n2c(=O)[nH]c3ccccc32)CC1)c1cccs1 | > 100 | > 100 | > 100 | > 100 |
| COc1c(O)cc2c(c1O)C1O[C@H](CO)C(O)[C@H](O)[C@H]1OC2=O (stereo not given in full) |  | > 100 | > 100 | > 100 |
| CCO/C(O)=C(/C(=N)N1CCCC1)C(=O)Nc1ccc(Cl)cc1 |  | > 100 | > 100 | > 100 |
| CC(CCC(=O)O)[C@H]1CCC2[C@H]3C(CC(=O)[C@@]21C)[C@@]1(C)CCC(O)C[C@H]1C[C@@H]3O (stereo not given in full) | > 100 | > 100 | > 100 | > 100 |
| COc1ccccc1CNCc1nc2ccccc2[nH]1 | > 100 | > 100 | > 100 | > 100 |
| COc1ccccc1N1C(=O)/C(=C\c2cc(OC)c(OC)c(OC)c2)S(=O)(=O)C1c1ccccc1 (stereo not given) | > 100 | > 100 | > 100 | > 100 |
| O=C(Nc1ccccc1)C(=O)C(C(=O)c1ccccc1)C(c1ccccc1)c1ccccc1 (stereo not given) |  | > 10 | > 10 | > 10 |

| Compound | TGI (UO-31 renal) [µM] | TGI (K-562 leukemia) [µM] | TGI (COLO 205 colon) [µM] | TGI (M14 melanoma) [µM] |
| --- | --- | --- | --- | --- |
| O=c1[nH]c(=O)n(C2CC(O)C(CO)O2)c2nc3ccc4ccccc4c3nc12 (stereo not given) | > 100 | > 100 | > 100 | > 100 |
| O=C(/C=C\c1ccccc1-c1ccccc1)c1ccccc1 | > 100 | > 100 | > 100 | > 100 |
| COc1ccc(N2C(=O)/C(=C\c3cc(OC)c(OC)c(OC)c3)S(=O)(=O)C2c2ccccc2)cc1 (stereo not given) | > 100 | > 100 | 41.6 | 84.2 |
| N#CC(C#N)=C1CCCCc2ccc([N+](=O)[O-])cc21 | > 100 | > 100 | > 100 | > 100 |
| CC(C)(C)C(=O)Nc1cccc(-c2ccc[nH]2)n1 | > 100 | > 100 | > 100 | > 100 |
| COc1ccc(C(CC(=O)c2ccccc2)C(=O)c2ccc3c(c2)OCO3)cc1 (stereo not given) | > 100 | > 100 | > 100 | > 100 |
| O=C(/C=C/c1cccs1)c1ccc(C(=O)/C=C/c2cccs2)cc1 | > 100 |  | > 100 | > 100 |
| Cc1ccc(S(=O)(=O)n2cnc(CC(NC(=O)C3CCC(=O)N3C(=O)OCc3ccccc3)C(=O)N3CCCC3C(=O)NN)c2)cc1 (stereo not given) | > 100 | > 100 | > 100 | > 100 |
| Cc1n[nH]c(=O)n1/N=C/c1cccnc1 | > 100 | > 100 | > 100 | > 100 |
| Cc1cc2nc3c(C#N)c(-c4ccccc4)cc(Nc4ccc(F)cc4)n3c2cc1C |  |  | > 100 |  |
| O=C(O)CCSc1nnc(COc2ccc(Cl)cc2)n1-c1ccccc1 | > 100 | > 100 | > 100 | > 100 |
| Cc1ccnc2nc3[nH]c4ccccc4c3cc12 | > 100 | > 100 | > 100 | > 100 |
| C/C(=C/CNc1ncnc2c1ncn2CCC#N)CO | > 100 | > 100 | > 100 | > 100 |
| CN(C)CCN1C(=O)c2ccccc2C1(O)c1ccc(Cl)cc1 (stereo not given) | > 100 | > 100 | > 100 | > 100 |
| C=CC(c1ccccc1)C1(O)c2cccc(O)c2C(=O)c2c(O)cccc21 (stereo not given) | 41.6 | 37.7 |  | 34.5 |
| COc1ccc(-c2cc(-c3ccco3)c(C#N)c(=S)n2C2OC(CO)C(O)C(O)C2O)cc1 (stereo not given) | > 100 | > 100 | > 100 | > 100 |
| C=CC1(c2ccc(Br)cc2)OCCCO1 | > 100 | > 100 | > 100 | > 100 |
| CC(=C(C(=O)O)C(=O)O)c1cc(-c2cccs2)cc(-c2ccc(Cl)cc2)c1O | 24.5 | > 53.6 | 44.8 | 32.7 |
| O=C1OC2(c3ccc(O)cc3Oc3cc(O)ccc32)c2c1c(-c1ccccc1)c(-c1ccccc1)c(-c1ccccc1)c2-c1ccccc1 | 63.7 | 70 | 35.2 | 34.4 |

Source: PubChem BioAssay (NCI)
